Consider 32 compounds from the Biogen ADME set (Fang et al. 2023).

Values after ≈ are worked out from the molar mass of the structure shown. A value given as a limit tells only on which side of the number the result lay.

For the data set the following is noted: for aqueous solubility: pH 6.8.

`COCCc1ccc(OCC(O)CNC(C)C)cc1` (stereo not drawn) yielded a fraction unbound, rat plasma of 1.

`CCC(CC)NC(=O)c1ccc2ncsc2c1`: the MDR1-MDCK efflux ratio is 0.527; the intrinsic clearance, human liver microsomes was 7.3 mL/min/kg; the intrinsic clearance, rat liver microsomes worked out at 20.5 mL/min/kg; the aqueous solubility came out at 22.2 µg/mL (≈ 89.4 µM).

Consider `Cn1c(C2CC2)nc2c1CCN(c1ncnc3ccsc13)C2`, for which the fraction unbound, human plasma was determined as 0.173; the fraction unbound, rat plasma stood at 0.156; the intrinsic clearance, human liver microsomes was determined as 31.9 mL/min/kg; the intrinsic clearance, rat liver microsomes amounted to 1090 mL/min/kg. The same compound showed an aqueous solubility of 50.4 µg/mL (≈ 162 µM).

In the case of `O=C1NCCN(C(=O)c2ccc3nccn3c2)C1c1ccccc1C(F)(F)F` (stereo not drawn), the MDR1-MDCK efflux ratio was 7.15; the fraction unbound, human plasma stood at 0.71; the fraction unbound, rat plasma is 0.633; the intrinsic clearance, human liver microsomes was at most 4.74 mL/min/kg. Also, the intrinsic clearance, rat liver microsomes turned out to be 37.5 mL/min/kg and the aqueous solubility is 69.6 µg/mL (≈ 179 µM).

For `Cc1nn(C)cc1CNc1nc(-c2cnccn2)nc2sc3c(c12)CCCC3`, the MDR1-MDCK efflux ratio was 1.92; the intrinsic clearance, human liver microsomes was 273 mL/min/kg; the intrinsic clearance, rat liver microsomes worked out at 2410 mL/min/kg; the aqueous solubility was determined as 50.6 µg/mL (≈ 129 µM).

Regarding `CCc1nc(C)cn2nc(-c3cc(=O)n4cc(C5CCN(C)CC5)cc(C)c4n3)cc12`, the MDR1-MDCK efflux ratio is 3.62; the fraction unbound, human plasma worked out at 0.0738; the fraction unbound, rat plasma was found to be 0.0392; the intrinsic clearance, human liver microsomes was at most 4.74 mL/min/kg. The intrinsic clearance, rat liver microsomes turned out to be 25.7 mL/min/kg and the aqueous solubility amounted to 17.7 µg/mL (≈ 42.4 µM).

Take `C=CCn1cnc2c(Cl)cc(-c3ccc(C(=O)NC4CC4)o3)cc21`: the MDR1-MDCK efflux ratio is 5.09; the intrinsic clearance, human liver microsomes stood at 27.5 mL/min/kg; the intrinsic clearance, rat liver microsomes came to 115 mL/min/kg; the aqueous solubility is 33.2 µg/mL (≈ 97 µM).

As to `O=C(COc1ccc2oc3c(c2c1)CCCC3)N1CCOCC1`, the intrinsic clearance, human liver microsomes was 31 mL/min/kg; the intrinsic clearance, rat liver microsomes was 2980 mL/min/kg; the aqueous solubility was 43 µg/mL (≈ 136 µM).

Consider `O=C(Cc1ccc2c(c1)OCCO2)NC1CCCCCC1`, for which the MDR1-MDCK efflux ratio is 0.619; the intrinsic clearance, human liver microsomes turned out to be 194 mL/min/kg; the intrinsic clearance, rat liver microsomes is 927 mL/min/kg; the aqueous solubility is 42.1 µg/mL (≈ 146 µM).

Consider `CNC(=O)c1ccc(N(C)C2CCC2)nn1`, for which the MDR1-MDCK efflux ratio came out at 0.586; the intrinsic clearance, human liver microsomes came to 24.8 mL/min/kg; the intrinsic clearance, rat liver microsomes is 40.3 mL/min/kg; the aqueous solubility came to 47.3 µg/mL (≈ 215 µM).

In the case of `N#CC1(CN2CCc3cc(-c4ccccc4)oc3C2)CC1`, the MDR1-MDCK efflux ratio was 0.273; the intrinsic clearance, human liver microsomes was determined as 72.7 mL/min/kg; the intrinsic clearance, rat liver microsomes came to 503 mL/min/kg; the aqueous solubility came to 30.3 µg/mL (≈ 109 µM).

Take `CCC(C)(C)N1CCN(C(=O)Nc2cnn(CC(C)C)c2C(F)F)CC1`: the MDR1-MDCK efflux ratio was found to be 4.08; the intrinsic clearance, human liver microsomes was at most 4.74 mL/min/kg; the intrinsic clearance, rat liver microsomes stood at 159 mL/min/kg.

In the case of `N#Cc1cccnc1NCCc1cn2c(n1)CCCC2`, the MDR1-MDCK efflux ratio amounted to 1.33; the intrinsic clearance, human liver microsomes was found to be 11.5 mL/min/kg; the intrinsic clearance, rat liver microsomes was 2440 mL/min/kg; the aqueous solubility stood at 52.4 µg/mL (≈ 196 µM).

In the case of `Cc1nnc(N2CCCSCC2)c(C#N)c1C`, the MDR1-MDCK efflux ratio is 0.646; the intrinsic clearance, human liver microsomes was found to be 35.7 mL/min/kg; the intrinsic clearance, rat liver microsomes worked out at 1530 mL/min/kg; the aqueous solubility came to 23.6 µg/mL (≈ 95.1 µM).

Turning to `O=C(C1CC1)N1CCC(CNS(=O)(=O)N2CCCCCC2)CC1`, the MDR1-MDCK efflux ratio was found to be 15.2; the intrinsic clearance, human liver microsomes is 40.4 mL/min/kg; the intrinsic clearance, rat liver microsomes came to 1320 mL/min/kg.

As to `Cc1cc(C(F)(F)F)nc(CCNC(=O)N(C)Cc2ccncc2C)n1`, the MDR1-MDCK efflux ratio is 52; the intrinsic clearance, human liver microsomes is 198 mL/min/kg; the intrinsic clearance, rat liver microsomes was found to be 734 mL/min/kg.

`CC(C)CCN1CCn2c1nc1c2c(=O)n(C)c(=O)n1C` registered an intrinsic clearance, human liver microsomes of 26.3 mL/min/kg; an intrinsic clearance, rat liver microsomes of 99.7 mL/min/kg; an aqueous solubility of 46.6 µg/mL (≈ 160 µM).

Regarding `CCOC(=O)CCN1CCC=C(Br)C1`, the MDR1-MDCK efflux ratio was 0.625.

Turning to `Cc1cc(C(=O)NCCc2ccccn2)c(C)s1`, the MDR1-MDCK efflux ratio turned out to be 0.639; the intrinsic clearance, human liver microsomes was 63.1 mL/min/kg; the intrinsic clearance, rat liver microsomes came out at 232 mL/min/kg; the aqueous solubility worked out at 41.1 µg/mL (≈ 158 µM).

On to `Fc1ccc(NCc2cccc(OCCN3CCOCC3)c2)nc1`, for which the MDR1-MDCK efflux ratio worked out at 0.773; the intrinsic clearance, human liver microsomes was 10.2 mL/min/kg; the intrinsic clearance, rat liver microsomes is 280 mL/min/kg; the aqueous solubility worked out at 39.6 µg/mL (≈ 120 µM).

Regarding `COc1ccc(NC(=O)C(C)N2CCCN(c3ccc(C(F)(F)F)cn3)CC2)cc1` (stereo not drawn), the MDR1-MDCK efflux ratio worked out at 0.969; the intrinsic clearance, human liver microsomes turned out to be 391 mL/min/kg; the intrinsic clearance, rat liver microsomes was determined as 1930 mL/min/kg; the aqueous solubility was 19.1 µg/mL (≈ 45.1 µM).

Consider `CN(C(=O)c1cc2ccc(C(C)(C)C)cc2[nH]1)C1(C#N)CCC1`, for which the MDR1-MDCK efflux ratio is 0.492 and the aqueous solubility is 0.22 µg/mL (≈ 0.711 µM).

Consider `COc1ccc2ccccc2c1CNC(=O)c1cnc(C2CC2)nc1`, for which the MDR1-MDCK efflux ratio came out at 0.645; the intrinsic clearance, human liver microsomes worked out at 33.7 mL/min/kg; the intrinsic clearance, rat liver microsomes was found to be 442 mL/min/kg; the aqueous solubility was found to be 5.12 µg/mL (≈ 15.4 µM).

For `Cc1ccnc(NC(=O)CN(C)c2ncnc3sc4c(c23)CCC(C)C4)c1` (stereo not drawn), the aqueous solubility is 3.88 µg/mL (≈ 10.2 µM).

`Cc1cc(OCc2ccnc(Cl)c2)nnc1C` showed an intrinsic clearance, human liver microsomes of at most 4.74 mL/min/kg and an intrinsic clearance, rat liver microsomes of 51.6 mL/min/kg.

As for `O=c1[nH]c2ccccc2n1C1CCN(Cc2nc(-c3ccsc3)no2)CC1`, the MDR1-MDCK efflux ratio was 3.73; the intrinsic clearance, human liver microsomes turned out to be 16.3 mL/min/kg; the intrinsic clearance, rat liver microsomes stood at 263 mL/min/kg; the aqueous solubility worked out at 5.8 µg/mL (≈ 15.2 µM).

Consider `CCCn1ncnc1-c1ccccc1SC`, for which the MDR1-MDCK efflux ratio is 0.798; the intrinsic clearance, human liver microsomes came to 82.5 mL/min/kg; the intrinsic clearance, rat liver microsomes is 765 mL/min/kg; the aqueous solubility was 19.9 µg/mL (≈ 85.2 µM).

In the case of `N#Cc1cc(F)c(NS(=O)(=O)c2c[nH]c3cc(Cl)ccc23)cc1F`, the MDR1-MDCK efflux ratio amounted to 2.57; the fraction unbound, human plasma is 0.0094; the fraction unbound, rat plasma came to 0.0056; the intrinsic clearance, human liver microsomes was at most 4.74 mL/min/kg. Moreover, the aqueous solubility was 66.1 µg/mL (≈ 180 µM).

In the case of `CN(CCCC1CCCC1)Cc1cc(=O)[nH]c(=O)[nH]1`, the MDR1-MDCK efflux ratio was 0.839; the intrinsic clearance, human liver microsomes was 7.57 mL/min/kg; the intrinsic clearance, rat liver microsomes amounted to 165 mL/min/kg.

As to `O=C(Nc1cncc2ccccc12)c1ncccn1`, the MDR1-MDCK efflux ratio was found to be 0.676; the intrinsic clearance, human liver microsomes worked out at 37.6 mL/min/kg; the intrinsic clearance, rat liver microsomes is 14.3 mL/min/kg.

Consider `CC1(C)OCCn2c1nc1c(N3CCOCC3)nc(-c3cnc(N)nc3)nc12`, for which the MDR1-MDCK efflux ratio was 1.31; the intrinsic clearance, human liver microsomes turned out to be 6.14 mL/min/kg; the intrinsic clearance, rat liver microsomes stood at 26 mL/min/kg; the aqueous solubility worked out at 6.44 µg/mL (≈ 16.8 µM).

Regarding `CN(CCNC(=O)NC1CCOCC1)C1CCCC1`, the MDR1-MDCK efflux ratio worked out at 18.2; the intrinsic clearance, human liver microsomes is at most 4.74 mL/min/kg; the intrinsic clearance, rat liver microsomes was found to be 184 mL/min/kg.

For orientation: aqueous solubility means the dissolved amount per volume that the medium holds. A low value points to little dissolved substance.
